{"source": "patent US7897565B2", "about": "“Compositions for HCV treatment” (priority 2004, dated 2011)", "key": {"[1]": {"test_system": "HCV replicon cells clone A", "type": "cell-based, hepatitis C virus", "conditions": "1 mg/ml G418", "method": "HCV replicon cells clone A are treated with various concentrations of NIM811 and BILN2061 either alone or in combination in the presence of 1 mg/ml G418."}, "[2]": {"target": "human recombinant cyclophilin (Homo sapiens, UniProt P62937)", "sequence (P62937 whole entry)": "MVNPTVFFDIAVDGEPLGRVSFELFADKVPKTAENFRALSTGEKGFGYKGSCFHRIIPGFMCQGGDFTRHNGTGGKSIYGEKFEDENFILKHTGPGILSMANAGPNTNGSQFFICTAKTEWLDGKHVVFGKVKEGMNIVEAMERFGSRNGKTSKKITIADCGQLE", "test": "competitive ELISA for binding to cyclophilin (Binding Ratio vs cyclosporin A)", "conditions": "negative value = binding stronger than cyclosporin A", "method": "A cyclosporin is considered as binding to cyclophilin if it binds to human recombinant cyclophilin at least one fifth as well as does cyclosporin A in the competitive ELISA test described by Quesniaux in Eur. J. Immunol. 1987 17:1359-1365. In this test, the cyclosporin to be tested is added during the incubation of cyclophilin with coated BSA-cyclosporin A and the concentration required to give a 50% inhibition of the control reaction without competitor is calculated (IC50). The results are expressed as the Binding Ratio (BR), which is the log to the base 10 of the ratio of the IC50 of the test compound and the IC50 in a simultaneous test of cyclosporin A itself."}, "[3]": {"test_system": "HCV replicon cells clone A", "test": "nine-day viral RNA reduction assay (quantitative RT-PCR)", "type": "cell-based, hepatitis C virus", "method": "Analysis of the effect of combination treatment, are examined using nine-day viral RNA reduction assays. HCV replicon cells clone A are treated with compounds in DMEM supplemented with 10% FBS and 0.2% DMSO for 3, 6, or 9 days, then the total intracellular RNA is extracted, and the level of HCV RNA is determined by real-time quantitative RT-PCR (Taqman) using HCV-specific primers and probe as described above. For each treatment, the quantity of HCV RNA is normalized against the amount of total RNA extracted, which is determined in a Quant-iT assay (Molecular Probe). The log reduction of HCV RNA is calculated by comparing the level of HCV RNA in compound-treated cells to that of untreated cells."}, "[4]": {"test_system": "Balb/c spleen cells", "test": "Mixed Lymphocyte Reaction (MLR), activity relative to cyclosporin A", "type": "cell-based, mice", "from_the_text": "Cyclosporins which bind strongly to cyclophilin but are not immunosuppressive have been identified. A cyclosporin is considered to be non-immunosuppressive when it has an activity in the Mixed Lymphocyte Reaction (MLR) of no more than 5%, preferably no more than 2%, that of cyclosporin A. The Mixed Lymphocyte Reaction is described by T. Meo in “Immunological Methods”, L. Lefkovits and B. Peris, Eds., Academic Press, N.Y. pp. 227-239 (1979). Spleen cells (0.5×10^6) from Balb/c mice (female, 8˜10 weeks) are co-incubated for 5 days with 0.5×10^6 irradiated (2000 rads) or mitomycin C treated spleen cells from CBA mice (female, 8˜10 weeks). The irradiated allogeneic cells induce a proliferative response in the Balb/c spleen cells which can be measured by labeled precursor incorporation into the DNA. […] The IC50 found for the test compound in the MLR is compared with that found for cyclosporin A in a parallel experiment. In addition, non-immunosuppressive cyclosporins lack the capacity of inhibiting CN and the downstream NF-AT pathway."}}, "note": "Non-standard residues stand in square brackets, D forms with d. Residues, ends and D or L forms follow the SMILES beside them. ξ: configuration not given here. ξNMeBmt = C/C=C/C[C@@H](C)[C@@H](O)C(NC)C(=O)O; NMeL = CN[C@@H](CC(C)C)C(=O)O; NMeV = CN[C@H](C(=O)O)C(C)C; NMeA = CN[C@@H](C)C(=O)O; Abu = CC[C@H](N)C(=O)O; Sar = CNCC(=O)O", "data": [{"compound": "COc1ccc2c(O[C@@H]3C[C@H]4C(=O)N[C@]5(C(=O)O)C[C@H]5/C=C\\CCCCC[C@H](NC(=O)OC5CCCC5)C(=O)N4C3)cc(-c3csc(NC(C)C)n3)nc2c1", "note": "[BILN2061]", "values": [{"measurement": "treatment time after which resistant colonies start to form", "setting": "[1]", "value": 2, "unit": "weeks"}]}, {"compound": "C/C=C/C[C@@H](C)[C@@H](O)[C@H]1C(=O)N[C@@H](CC)C(=O)N(C)CC(=O)N(C)[C@@H]([C@@H](C)CC)C(=O)N[C@@H](C(C)C)C(=O)N(C)[C@@H](CC(C)C)C(=O)N[C@@H](C)C(=O)N[C@H](C)C(=O)N(C)[C@@H](CC(C)C)C(=O)N(C)[C@@H](CC(C)C)C(=O)N(C)[C@@H](C(C)C)C(=O)N1C", "note": "[NIM811, [Melle]^4-Ciclosporin]", "values": [{"measurement": "BR (Binding Ratio): log to the base 10 of the ratio of the IC50 of the test compound and the IC50 of cyclosporin A", "setting": "[2]", "value": "−0.2"}, {"measurement": "log reduction of HCV RNA", "setting": "[3]; 0.5 μM NIM811 alone, 9 days of treatment", "value": 1.2, "unit": "log"}, {"measurement": "log reduction of HCV RNA", "setting": "[3]; 1 μM NIM811 alone, 9 days of treatment", "value": "greater than 3 log"}]}, {"compound": "CC[C@@H]1NC(=O)C([C@H](O)[C@H](C)C/C=C/CO)N(C)C(=O)[C@H](C(C)C)N(C)C(=O)[C@H](CC(C)C)N(C)C(=O)[C@H](CC(C)C)N(C)C(=O)[C@@H](C)NC(=O)[C@H](C)NC(=O)[C@H](CC(C)C)N(C)C(=O)[C@H](C(C)C)NC(=O)[C@H](CC(C)C)N(C)C(=O)CN(C)C1=O", "note": "(stereo partly shown) [[8′-hydroxy-MeBmt]^5-Ciclosporin]", "values": [{"measurement": "BR (Binding Ratio): log to the base 10 of the ratio of the IC50 of the test compound and the IC50 of cyclosporin A", "setting": "[2]", "value": 0.35}, {"measurement": "IR (Immunosuppressive Ratio), percentage of the activity relative to Cyclosporin A", "setting": "[4]", "value": 1.8, "unit": "%"}]}, {"compound": "C/C=C/C[C@@H](C)[C@@H](O)C1C(=O)N[C@@H](CC)C(=O)N(C)CC(=O)N(C)[C@@H](CC(C)C)C(=O)N[C@@H](C(C)C)C(=O)N(C)[C@@H](C)C(=O)N[C@@H](C)C(=O)N[C@H](C)C(=O)N(C)[C@@H](CC(C)C)C(=O)N(C)[C@@H](CC(C)C)C(=O)N(C)[C@@H](C(C)C)C(=O)N1C", "note": "(stereo partly shown) [[MeAla]^6-Ciclosporin] (cyclo(A[dA][NMeL][NMeL][NMeV][ξNMeBmt][Abu][Sar][NMeL]V[NMeA]))", "values": [{"measurement": "BR (Binding Ratio): log to the base 10 of the ratio of the IC50 of the test compound and the IC50 of cyclosporin A", "setting": "[2]", "value": "−0.4"}, {"measurement": "IR (Immunosuppressive Ratio), percentage of the activity relative to Cyclosporin A", "setting": "[4]", "value": 3.2, "unit": "%"}]}, {"compound": "CC=CCC(C)C(O)C1C(=O)NC(CC)C(=O)N(C)CC(=O)N(C)C(C(C)C)C(=O)NC(C(C)C)C(=O)N(C)C(CC(C)C)C(=O)NC(C)C(=O)NC(C)C(=O)N(C)C(CC(C)C)C(=O)N(C)C(CC(C)C)C(=O)N(C)C(C(C)C)C(=O)N1C", "note": "(stereo not shown) [[MeVal]^4-Ciclosporin]", "values": [{"measurement": "BR (Binding Ratio): log to the base 10 of the ratio of the IC50 of the test compound and the IC50 of cyclosporin A", "setting": "[2]", "value": 0.1}]}, {"compound": "C/C=C/C[C@@H](C)[C@@H](O)C1C(=O)N[C@@H](CC)C(=O)N(C)CC(=O)N(C)[C@@H](CC(C)C)C(=O)N(C)[C@@H](C(C)C)C(=O)N(C)[C@@H](CC(C)C)C(=O)N[C@@H](C)C(=O)N[C@H](C)C(=O)N(C)[C@@H](CC(C)C)C(=O)N(C)[C@@H](CC(C)C)C(=O)N(C)[C@@H](C(C)C)C(=O)N1C", "note": "(stereo partly shown) [[MeVal]^5-Ciclosporin]", "values": [{"measurement": "BR (Binding Ratio): log to the base 10 of the ratio of the IC50 of the test compound and the IC50 of cyclosporin A", "setting": "[2]", "value": 0.4}, {"measurement": "IR (Immunosuppressive Ratio), percentage of the activity relative to Cyclosporin A", "setting": "[4]", "value": 5.3, "unit": "%"}]}, {"compound": "C/C=C/C[C@@H](C)[C@@H](O)C1C(=O)N[C@@H](CC)C(=O)N(C)CC(=O)N(C)[C@@H](CC(C)C)C(=O)N[C@@H](C(C)C)C(=O)N(C)[C@@H](CC(C)C)C(=O)N[C@@H](C)C(=O)N[C@H](C)C(=O)N(C)[C@@H](CC(C)(C)O)C(=O)N(C)[C@@H](CC(C)C)C(=O)N(C)[C@@H](C(C)C)C(=O)N1C", "note": "(stereo partly shown) [[γ-hydroxy-MeLeu]^9-Ciclosporin]", "values": [{"measurement": "BR (Binding Ratio): log to the base 10 of the ratio of the IC50 of the test compound and the IC50 of cyclosporin A", "setting": "[2]", "value": 0.15}, {"measurement": "IR (Immunosuppressive Ratio), percentage of the activity relative to Cyclosporin A", "setting": "[4]", "value": 2.9, "unit": "%"}]}, {"compound": "IFN-α", "values": [{"measurement": "log reduction of HCV RNA", "setting": "[3]; 5 U/ml IFN-α alone, 9 days", "value": 1.2, "unit": "log"}]}, {"compound": "[Ethyl-Ile]^4-Ciclosporin", "values": [{"measurement": "BR (Binding Ratio): log to the base 10 of the ratio of the IC50 of the test compound and the IC50 of cyclosporin A", "setting": "[2]", "value": 0.1}]}, {"compound": "[Ethyl-Val]^4-Ciclosporin", "values": [{"measurement": "BR (Binding Ratio): log to the base 10 of the ratio of the IC50 of the test compound and the IC50 of cyclosporin A", "setting": "[2]", "value": 0}]}]}
